Drawing on PubChem BioAssay (NCI), this text covers GI50 and TGI for 33 compounds.

By GI50 is commonly meant the concentration that inhibits growth by half. As a reminder, the TGI is the concentration at which net growth stops.

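Tested at 5 concentrations; 48 h exposure; 96-well plates; endpoints linearly interpolated, else capped at highest concentration. The concentration for 50% growth inhibition is given as GI50. TGI denotes the concentration required for complete inhibition of growth.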 Bounds are passed on as bounds.

Test systems include T-47D breast; MDA-N; LXFL 529 NSCLC; DMS 273 small cell lung; SNB-78 CNS; KM20L2 colon; M19-MEL melanoma; XF 498 CNS.
Experiment in all cases: DTP human tumour cell line panel, 48 h

Take `Br[C](Br)(Br)[Hg][c]1ccccc1`: in the assay on T-47D breast, the GI50 is 9.56 µM and the total growth inhibition concentration (TGI) was 43.7 µM. Further, in the assay with MDA-N, the GI50 is 17.6 µM and the TGI worked out at 38.7 µM.

As to `CC/C=C\C[C@H]1C/C=C2/C(=O)C=C[C@@H]2C/C=C\CCCC(=O)O1`, in the assay with T-47D breast, the GI50 was 1.21 µM and the TGI stood at 9.33 µM.

For `CC1=C[C@H]2c3c(c(O)c(O)c4oc(-c5ccccc5)cc(=O)c34)[C@H](c3cc(O)c(O)c4oc(-c5ccccc5)cc(=O)c34)[C@H]2C(C)(C)C1`, in the assay on T-47D breast, the GI50 was 1.02 µM and the TGI amounted to 17.1 µM.

`CN(C)C(=O)[C@H](O)[C@H](Cc1ccccc1)NC(=O)c1cc2cc(Cl)ccc2[nH]1`: in the assay on T-47D breast, the GI50 was 25.1 µM and the TGI is > 96.7 µM.

For `COc1ccc(CCN2COc3c([C@@H](C)CCC=C(C)C)ccc(C)c3C2)cc1OC`, in the assay with T-47D breast, the GI50 was 1.78 µM and the TGI was 3.8 µM.

In the assay on MDA-N, `C[C@]12CC[C@@H]3c4cc(OCC(F)(F)F)c(O)cc4/C(=N/O)C[C@H]3[C@@H]1CC[C@@H]2O` had a concentration for total growth inhibition (TGI) of 1.06 µM.

With `CCn1c(-c2ccc(OC(C)=O)cc2)c(C)c2cc(OC(C)=O)ccc21`, the TGI in the assay on T-47D breast stood at 60.5 µM; with MDA-N it was 77.9 µM.

Turning to `O=C(/C=C\c1ccc(NCc2ccc(C(=O)O)cc2)cc1)CCl`, in the assay with T-47D breast, the GI50 is 2.6 µM and the TGI was determined as 12.5 µM.

`CC1=CC(C/C(C)=C/COc2ccc3ccc(=O)oc3c2)OC1=O` (centres undefined): the TGI in the assay with T-47D breast and in the assay with MDA-N was > 100 µM each time.

As for `Cc1c(C(=O)/C=C/c2ccccc2)[n+](=O)c2ccccc2n1[O-]`, the total growth inhibition concentration (TGI) with LXFL 529 NSCLC was 26 µM; with DMS 273 small cell lung, 30.1 µM; in the assay on SNB-78 CNS, > 100 µM; in the assay with KM20L2 colon, 35.5 µM; in the assay with M19-MEL melanoma, 30 µM; with XF 498 CNS, 24.6 µM.

As for `CC(C)C[C@H](NC(=O)/C=C/Cn1ccc2ccccc2c1=O)B(O)O`, in the assay on T-47D breast, the GI50 is 2.68 µM and the total growth inhibition concentration (TGI) came to 15.3 µM.

On to `C1C[OH+]CC[OH+]CC[OH+]CC[OH+]CC[OH+]1.[Cl-].[V]`, for which the values for the GI50 in the assay with LXFL 529 NSCLC, with DMS 273 small cell lung and in the assay on KM20L2 colon were > 100 µM, 53 µM and > 100 µM, respectively. Besides, the TGI with LXFL 529 NSCLC, in the assay with DMS 273 small cell lung and in the assay with KM20L2 colon was > 100 µM throughout.

Regarding `Cc1ccc2[nH]c(O)c(N=Nc3ccc(S(N)(=O)=O)cc3)c2c1`, in the assay on T-47D breast, the GI50 is 15.3 µM and the total growth inhibition concentration (TGI) is > 25 µM.

In the case of `COc1cc2[nH]c(C(=O)c3cc(OC)c(OC)c(OC)c3)c(N)c2cc1C#CC1CC1`, in the assay with T-47D breast, the GI50 is 3.02 µM and the concentration for total growth inhibition (TGI) was > 100 µM.

Regarding `CSC(C1c2ccccc2N(c2ccc(C)cc2)c2[nH]c(=O)n(C)c(=O)c21)S(=O)(=O)c1ccc(C)cc1` (centres undefined), the TGI in the assay on LXFL 529 NSCLC, in the assay on DMS 273 small cell lung, in the assay on SNB-78 CNS, in the assay on KM20L2 colon, in the assay on M19-MEL melanoma and in the assay on XF 498 CNS was > 100 µM each time.

On to `CC(C)(C[C@H]1CN(S(=O)(=O)c2cccc(C(F)(F)F)c2)c2cc(-c3cc(F)cc(OC(F)F)c3)ccc2O1)C(=O)O`, for which, in the assay on T-47D breast, the GI50 is 5.19 µM and the total growth inhibition concentration (TGI) came to 29.2 µM.

Turning to `CCOC(=O)c1ccc(C)c(N=NN(C)C)c1`, the concentration for total growth inhibition (TGI) with DMS 273 small cell lung, in the assay with KM20L2 colon, in the assay with M19-MEL melanoma and in the assay with XF 498 CNS was > 100 µM each time.

As to `Nc1ccn(C2CCC(CO)O2)c(=O)n1` (centres undefined), the TGI was > 81.9 µM with SNB-78 CNS, > 1000 µM with T-47D breast and > 1000 µM in the assay on MDA-N.

On to `CC1(C)[C@@H](OC(N)=O)[C@H]2O[C@H]2[C@]2(C=O)[C@H]3CC[C@]4(C)[C@@H](c5ccc(=O)oc5)[C@@H](Cl)C[C@]4(O)C3=CC[C@@H]12`, for which, in the assay on T-47D breast, the 50% growth inhibitory concentration (GI50) is 0.00656 µM and the TGI was found to be 0.0181 µM.

`Cc1ccc(-c2nc3ccc(Cl)cc3c(=O)n2N2C(=O)CSC2c2ccccc2Cl)cc1` (centres undefined): in the assay on T-47D breast, the GI50 is 3.82 µM and the TGI is > 100 µM.

Turning to `N#CC1CC2(C1)OCCS2` (centres undefined), the concentration for total growth inhibition (TGI) with LXFL 529 NSCLC, with DMS 273 small cell lung, in the assay on SNB-78 CNS and with KM20L2 colon was > 100 µM throughout.

`O=C1/C(=C/c2cccc([N+](=O)[O-])c2)COc2ccc(Br)cc21`: the TGI in the assay with LXFL 529 NSCLC, in the assay with DMS 273 small cell lung, with SNB-78 CNS, in the assay with KM20L2 colon, in the assay with M19-MEL melanoma and in the assay on XF 498 CNS was > 100 µM in each case.

`C=C1CCC(CC[C@@H]2CC[C@]3(OC2)O[C@@]2(O)CC[C@]3(C)OC2(C)C)C(C)(C)[C@H]1C/C=C1/C(=O)OC[C@@H]1O` (some centres undefined): the concentration for total growth inhibition (TGI) came to 6.15 µM in the assay on T-47D breast and 4.36 µM in the assay on MDA-N.

Turning to `Cc1[nH]c2ccccc2c(=O)c1CC=C(Cl)Cl`, in the assay on T-47D breast, the GI50 is 29 µM and the TGI was > 100 µM.

In the case of `O=c1c2ccccc2c(=O)c2c1[nH]c1c(-c3ccccc3)c(-c3ccccc3)c(=O)c12`, in the assay with T-47D breast, the GI50 was 1.8 µM and the concentration for total growth inhibition (TGI) came out at 7.76 µM.

Turning to `O=C1NC2OC(C(O)CO)C(O)C2O1` (centres undefined), the total growth inhibition concentration (TGI) with LXFL 529 NSCLC, in the assay on DMS 273 small cell lung, in the assay on KM20L2 colon, with M19-MEL melanoma and in the assay on XF 498 CNS was > 100 µM throughout.

Regarding `COc1cc(C(=O)c2cc(C)c3[nH]c4ccc(C)cc4c3c2C)cc(OC)c1OC`, in the assay on T-47D breast, the concentration for 50% growth inhibition (GI50) is 0.287 µM and the TGI is > 100 µM.

Turning to `CCSc1nc(SCC)c2cn[nH]c2n1`, in the assay on T-47D breast, the GI50 is 34.2 µM and the TGI was > 100 µM.

For `COc1cc(NC(C)CCCN)c2nccc(C)c2c1` (centres undefined), the TGI with MDA-N was 33.7 µM.

Regarding `C#Cc1c(I)n(C2OC(CO[Si](C)(C)C(C)(C)C)C3OC(C)(C)OC32)c(=O)[nH]c1=O` (centres undefined), in the assay on T-47D breast, the GI50 was 5.42 µM and the TGI turned out to be 28 µM.

`COc1cc(/C=C/c2ccc(OC)c(OC)c2)cc(OC)c1`: the TGI in the assay with T-47D breast is > 100 µM.

As to `CCCCON(OC(=O)c1ccc2ccc3cccc4ccc1c2c34)C(C)=O`, in the assay with T-47D breast, the GI50 was 29.7 µM and the TGI was > 100 µM.

With `COc1ccc(C(=O)COc2ccc(/C=C3\COc4ccc(OC)cc4C3=O)cc2)cc1`, in the assay on T-47D breast, the GI50 was 19.1 µM and the TGI is 96.6 µM.
